Measurements as given in patent US20210393623A1 (Jacobio Pharmaceuticals Co., Ltd., priority 2018, published 2021).

target: T1, SHP2 (Homo sapiens, UniProt Q06124); assay: Phosphatase Assay (Single Dose Inhibition); type: biochemical; conditions: compound at 0.02 μM (20nM); DiFMUP substrate 12 μM; SHP2 0.5 nM activated with dPEG8 peptide; DMSO control set to 100%; triplicate
T1 sequence (Q06124 1-593): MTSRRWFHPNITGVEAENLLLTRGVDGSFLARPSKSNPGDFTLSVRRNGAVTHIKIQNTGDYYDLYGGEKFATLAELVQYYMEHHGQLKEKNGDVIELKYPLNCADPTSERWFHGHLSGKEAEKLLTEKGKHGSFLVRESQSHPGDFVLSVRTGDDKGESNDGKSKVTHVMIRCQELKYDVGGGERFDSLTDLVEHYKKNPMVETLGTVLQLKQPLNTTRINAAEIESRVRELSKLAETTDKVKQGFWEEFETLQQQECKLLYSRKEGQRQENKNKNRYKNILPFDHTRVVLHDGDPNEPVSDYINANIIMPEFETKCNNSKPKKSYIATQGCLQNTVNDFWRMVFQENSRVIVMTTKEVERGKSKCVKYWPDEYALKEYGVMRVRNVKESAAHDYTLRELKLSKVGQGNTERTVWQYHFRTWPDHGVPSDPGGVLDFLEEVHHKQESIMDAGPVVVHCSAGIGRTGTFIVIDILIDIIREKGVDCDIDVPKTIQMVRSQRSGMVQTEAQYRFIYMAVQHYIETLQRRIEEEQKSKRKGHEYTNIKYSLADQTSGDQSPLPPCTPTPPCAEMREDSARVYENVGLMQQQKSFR
Protocol: Phosphatase Assay (Single Dose Inhibition) Assay Protocol: For single dose inhibition assays using 6,8-difluoro-4-methylumbelliferyl phosphate (DiFMUP) as a substrate, SHP2 samples (diluted to 0.5 nM in reaction buffer) were incubated with dPEG8 peptide for 30 min in reaction buffer[60 mM 3,3-dimethyl glutarate (pH7.2), 75 mM NaCl, 75 mM KCl, and 1 mM EDTA, 0.05% Tween 20, 2mM dithiothreitol (DTT) ] to active the PTP. DMSO [0.5% (v/v)] or compounds (20nM) were added to the mixture and incubated for 30 min at room temperature. Reactions were initiated by the addition of DiFMUP (12 μM; total reaction volume of 100 μL), and the fluorescence (excitation at 340 nm, emission at 450 nm) of the resulting solutions was measured on a 2104-0020 EnVision Xcite Multilabel Reader (PerkinElmer) after 30min. The experiment is carried out in triplicate. The value for the control sample (DMSO) was set to 100%, and the values for the compound-treated samples were expressed as activity relative to the control sample.

| SMILES | inhibition at 0.02 µM [%] |
| --- | --- |
| Cc1nc(N2CCC3(CC2)Cc2ccccc2[C@H]3N)c(CO)nc1-c1cccc(Cl)c1Cl [Example 23, (S)-(3-(1-amino-1,3-dihydrospiro[indene-2,4′-piperidin]-1′-yl)-6-(2,3-dichlorophenyl)-5-methylpyrazin-2-yl)methanol] | 85 |
| Cc1nc(N2CCC3(CC2)Cc2ncccc2[C@H]3N)c(C(N)=O)nc1-c1cccc(Cl)c1Cl [Example 27, (S)-3-(5-amino-5,7-dihydrospiro[cyclopenta[b]pyridine-6,4′-piperidin]-1′-yl)-6-(2,3-dichlorophenyl)-5-methylpyrazine-2-carboxamide] | 79 |
| N[C@@H]1c2cccnc2CC12CCN(c1nc3[nH]cc(-c4cccc(Cl)c4Cl)c3c(=O)[nH]1)CC2 [Example 39, (S)-2-(5-amino-5,7-dihydrospiro[cyclopenta[b]pyridine-6,4′-piperidin]-1′-yl)-5-(2,3-dichlorophenyl)-3,7-dihydro-4H-pyrrolo[2,3-d]pyrimidin-4-one] | 78 |
| Cc1nc(N2CCC3(CC2)Cc2ccccc2[C@H]3N)c(CO)nc1Sc1ccnc(N)c1Cl [Example 24, (S)-(3-(1-amino-1,3-dihydrospiro[indene-2,4′-piperidin]-1′-yl)-6-((2-amino-3-chloropyridin-4-yl)thio)-5-methylpyrazin-2-yl)methanol] | 87 |
| Cn1c(N2CCC3(CC2)Cc2ncccc2[C@H]3N)nc2[nH]nc(-c3cccc(Cl)c3Cl)c2c1=O [Example 36, (S)-6-(5-amino-5,7-dihydrospiro[cyclopenta[b]pyridine-6,4′-piperidin]-1′-yl)-3-(2,3-dichlorophenyl)-5-methyl-1,5-dihydro-4H-pyrazolo[3,4-d]pyrimidin-4-one] | 88 |
| Nc1nc(N2CCC3(CC2)Cc2ncccc2[C@H]3N)ncc1Sc1ccnc(N)c1Cl [Example 8, (S)-1′-(4-amino-5-((2-amino-3-chloropyridin-4-yl)thio)pyrimidin-2-yl)-5,7-dihydrospiro[cyclopenta[b]pyridine-6,4′-piperidin]-5-amine] | 68 |
| Cc1nc(N2CCC3(CC2)Cc2ccccc2[C@H]3N)c(C(=O)O)nc1-c1cccc(Cl)c1Cl [Example 3, (S)-3-(1-amino-1,3-dihydrospiro[indene-2,4′-piperidin]-1′-yl)-6-(2,3-dichlorophenyl)-5-methylpyrazine-2-carboxylic acid] | 81 |
| Nc1nc(N2CCC3(CC2)Cc2ncccc2[C@H]3N)c(Br)nc1Sc1cccc(Cl)c1Cl [Example 29, (S)-1′-(6-amino-3-bromo-5-((2,3-dichlorophenyl)thio)pyrazin-2-yl)-5,7-dihydrospiro[cyclopenta[b]pyridine-6,4′-piperidin]-5-amine] | 68 |
| Cc1nc(N2CCC3(CC2)Cc2ncccc2[C@H]3N)c(C#N)nc1-c1cccc(Cl)c1Cl [Example 26, (S)-3-(5-amino-5,7-dihydrospiro[cyclopenta[b]pyridine-6,4′-piperidin]-1′-yl)-6-(2,3-dichlorophenyl)-5-methylpyrazine-2-carbonitrile] | 67 |
| N#Cc1cnc2c(c1)[C@@H](N)C1(CCN(c3ccc(Sc4ccnc(N)c4Cl)cn3)CC1)C2 [Example 15, (S)-5-amino-1′-(5-((2-amino-3-chloropyridin-4-yl)thio)pyridin-2-yl)-5,7-dihydrospiro[cyclopenta[b]pyridine-6,4′-piperidine]-3-carbonitrile] | 64 |
| Cc1nc(N2CCC3(CC2)Cc2ccccc2[C@H]3N)cnc1Sc1ccnc(N)c1Cl [Example 6, (S)-1′-(5-((2-amino-3-chloropyridin-4-yl)thio)-6-methylpyrazin-2-yl)-1,3-dihydrospiro[indene-2,4′-piperidin]-1-amine] | 89 |
| Cc1ccc(-c2n[nH]c3nc(N4CCC5(CC4)Cc4cc(F)c(F)c(F)c4[C@H]5N)n(C)c(=O)c23)s1 [Example 38, (S)-6-(1-amino-5,6,7-trifluoro-1,3-dihydrospiro[indene-2,4′-piperidin]-1′-yl)-5-methyl-3-(5-methylthiophen-2-yl)-1,5-dihydro-4H-pyrazolo[3,4-d]pyrimidin-4-one] | 53 |
